Measured values published in publication PMC12081876, “Identification of PTGR2 inhibitors as a new therapeutic strategy for diabetes and obesity” (EMBO Molecular Medicine, 2025).

Columns and labels:
Myc-DDK-mPPARγ = molecular target: T1, Myc-DDK-mPPARγ (Mus musculus, UniProt P37238); experiment: Reciprocal co-immunoprecipitation in HEK293T cells, wild-type mPPARγ; type: binding, murine; conditions: 15-keto-PGE2 treated
T1 construct: host or cells: HEK293T
Protocol: HEK293T cells were transfected with murin PPARγ (mPPARγ) and mPPARγ C313A plasmids for immunoprecipitation, which are Myc-DDK-tagged (OriGene, USA). […] According to the manufacturer’s protocol, proteins were immunoprecipitated using Anti-FLAG® M2 Magnetic Beads (2.5 mg/ml; cat. no. F1804, Sigma-Aldrich). Subsequently, the eluted proteins were separated by SDS-PAGE and subjected to immunoblot analysis. Following separation by SDS-PAGE, proteins were stained with Coomassie blue and SYPRO-Ruby stain. The protein bands of interest were cut out for in-gel tryptic digestion followed by C18 Zip-Tip clean-up (Millipore, USA). For proteomic shotgun identifications, nanoLC-nanoESI-MS/MS analysis was performed on a nanoAcquity system (Waters, USA) connected to the LTQ Orbitrap Velos hybrid MS (Thermo Electron, USA) equipped with a PicoView nanospray interface (New Objective, USA). Samples were loaded onto a C18 BEH column (75 μm × 25 cm length, 130 Å, 1.7 μm particle size) (Waters, USA) and separated by a segmented gradient form in 60 min from 5% to 40% acetonitrile (with 0.1% formic acid) at a constant flow rate of 300 nL/min with a column temperature of 35 °C. The mass spectrometer was operated in the data-dependent mode. […] Protein identification and modification were analyzed using Mascot Daemon (Matrix Science Inc., Chicago). […]

mPPARγ = molecular target: T2, mPPARγ (Mus musculus, UniProt P37238); experiment: Co-immunoprecipitation in mouse white adipose tissue; type: binding; conditions: epididymal white adipose tissue of Ptgr2+/+ and Ptgr2−/− mice
T2 construct: from tissue; host or cells: perigonadal (epididymal) white adipose tissue of Ptgr2+/+ and Ptgr2-/- mice
Source text: Lysates from the perigonadal fat of Ptgr2^+/+ and Ptgr2^−/− mice were immunoprecipitated with a mouse anti-15-keto-PGE2-cysteine-BSA antibody (1:1000) and then immunoblotted with a rat anti-PPARγ antibody (1:1000, cat. no. sc-7273, Santa Cruz Biotechnology).

[1] = Serum ALT, total bilirubin, BUN and creatinine; type: in vivo, mouse; conditions: 100 mg/kg/day, vs vehicle
PTGR2 = experiment: 15-keto-PGE2 content in fat tissue after BPRPT0245 dosing; type: in vivo, mouse; conditions: BPRPT0245 100 mg/kg/day oral, 4 days, 2 h after last dose, vs vehicle
Protocol: Liquid nitrogen-frozen tissue was grinded using pestle and mortar. Approximately 500 mg of tissue powders were immersed with 400 μL of the upper layer of acetonitrile (ACN)/hexane mixture supplemented with 0.5% formic acid, and then homogenized with ceramic beads by MagNA Lyser (Roche, USA). The homogenate was then added with 600 μL ACN containing 13,14 dihydro-15-keto-PGE2-d4 (cat no. 10007978, Cayman Chemical, Ann Arbor, MI) in 1:20,000 dilution and homogenized, followed by the addition of 600 μL ddH2O. The mixture was centrifuged at 12,000 × g for 10 min at 0 °C. The lower layer was transferred to a new tube. A C-18 solid-phase extraction (SPE) cartridge (Cat no. 400020, Cayman Chemical) was sequentially activated with 20 mL methanol and 20 mL ddH2O. The protein sample was loaded into activated SPE cartridge. Once the sample passed the cartridge, the cartridge was washed with 5 mL 15% methanol and then 5 mL ddH2O. Finally, the sample was eluted with 10 mL HPLC-degree methanol (Methanol Chromasolv LC-MS, Fluka) and aliquoted into new 2-mL tubes. […]
The HPLC system consisted of an Agilent 1200 series LC System with BinPump (Waldbronn, Germany) and an Agilent Eclipse XDB C8 (3.0 × 150 mm, 5 µm) interfaced to a Sciex API 4000 tandem mass spectrometer. […] The ions monitored for BPRPT0245 were m/z 447/189 and m/z 357/195, respectively. […]

T1 sequence (P37238 whole entry): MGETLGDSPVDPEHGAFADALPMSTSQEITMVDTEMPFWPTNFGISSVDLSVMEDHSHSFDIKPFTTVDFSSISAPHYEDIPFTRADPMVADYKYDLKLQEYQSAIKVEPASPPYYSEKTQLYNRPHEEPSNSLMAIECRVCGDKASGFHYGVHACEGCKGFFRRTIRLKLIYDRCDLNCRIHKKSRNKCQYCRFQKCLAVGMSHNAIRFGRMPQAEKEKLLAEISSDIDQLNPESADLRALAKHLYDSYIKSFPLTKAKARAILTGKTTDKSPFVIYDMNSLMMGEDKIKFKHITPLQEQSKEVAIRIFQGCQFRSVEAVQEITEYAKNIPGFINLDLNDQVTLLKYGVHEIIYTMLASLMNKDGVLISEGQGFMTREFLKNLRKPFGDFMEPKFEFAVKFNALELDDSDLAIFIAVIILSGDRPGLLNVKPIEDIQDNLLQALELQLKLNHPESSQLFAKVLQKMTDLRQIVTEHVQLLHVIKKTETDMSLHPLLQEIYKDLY
T2 sequence (P37238 whole entry): as above

Compound | co-immunoprecipitation with 15-keto-PGE2-cysteine antibody, wild-type mPPARγ (Myc-DDK-mPPARγ) | co-immunoprecipitation of mPPARγ with anti-15-keto-PGE2-cysteine-BSA antibody in fat tissue (mPPARγ) | serum ALT, total bilirubin, BUN and creatinine levels [1] | increase of 15-keto-PGE2 content in inguinal fat (PTGR2) | increase of 15-keto-PGE2 content in perigonadal fat (PTGR2; trend)
CCCCCC(=O)/C=C/[C@H]1[C@H](O)CC(=O)[C@@H]1C/C=C\CCCC(=O)O [15-keto-PGE2, 15-keto-prostaglandin E2] | A single band of PPARγ (57 kDa) was detected | confirming the covalent binding of mPPARγ to 15-keto-PGE2 | – | – | –
Cc1[nH]c2nc(C(C)N3CCN(c4ccccc4)CC3)nn2c(=O)c1Cc1ccc(F)cc1 (centres unmarked) [BPRPT0245] | – | – | no differences | ~ 1.32 fold | ~ 1.34 fold
